# Source: PubChem BioAssay (NCI)
#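 Method: 48-hour compound exposure of cells in 96-well plates, five concentrations, linear interpolation of endpoints. Abbreviation: GI50, concentration required for 50% inhibition of growth. TGI marks complete inhibition of growth.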
# How the values were obtained:
# Assay in all cases: NCI-60 cell line screen, 48 h
# SW-620 colon = system: SW-620 colon
# NCI/ADR-RES ovarian = system: NCI/ADR-RES ovarian
# SK-MEL-2 melanoma = system: SK-MEL-2 melanoma
# HCT-15 colon = system: HCT-15 colon
# OVCAR-3 ovarian = system: OVCAR-3 ovarian
# K-562 leukemia = system: K-562 leukemia
# KM12 colon = system: KM12 colon
# CCRF-CEM leukemia = system: CCRF-CEM leukemia
# HCT-116 colon = system: HCT-116 colon
# HS 578T breast = system: HS 578T breast
# COLO 205 colon = system: COLO 205 colon
# SK-OV-3 ovarian = system: SK-OV-3 ovarian
# 786-0 renal = system: 786-0 renal
# LOX IMVI melanoma = system: LOX IMVI melanoma
# HCC-2998 colon = system: HCC-2998 colon
# SK-MEL-28 melanoma = system: SK-MEL-28 melanoma
# SF-268 CNS = system: SF-268 CNS
# SF-539 CNS = system: SF-539 CNS
# ACHN renal = system: ACHN renal
# EKVX NSCLC = system: EKVX NSCLC
# MDA-MB-231 breast = system: MDA-MB-231 breast
# A498 renal = system: A498 renal
# SN12C renal = system: SN12C renal
# HOP-62 NSCLC = system: HOP-62 NSCLC
# SK-MEL-5 melanoma = system: SK-MEL-5 melanoma
# UACC-62 melanoma = system: UACC-62 melanoma
# NCI-H522 lung = system: NCI-H522 lung
# NCI-H226 lung = system: NCI-H226 lung
# U251 CNS = system: U251 CNS
# TK-10 renal = system: TK-10 renal
# M14 melanoma = system: M14 melanoma
# OVCAR-4 ovarian = system: OVCAR-4 ovarian
# T-47D breast = system: T-47D breast
# OVCAR-5 ovarian = system: OVCAR-5 ovarian
# OVCAR-8 ovarian = system: OVCAR-8 ovarian
# A549 NSCLC = system: A549 NSCLC
# MCF7 breast = system: MCF7 breast
# NCI-H23 lung = system: NCI-H23 lung
# RPMI-8226 leukemia = system: RPMI-8226 leukemia
# RXF 393 renal = system: RXF 393 renal
# SNB-19 CNS = system: SNB-19 CNS
# SF-295 CNS = system: SF-295 CNS
# CAKI-1 renal = system: CAKI-1 renal
# MOLT-4 leukemia = system: MOLT-4 leukemia
# NCI-H460 lung = system: NCI-H460 lung
# UACC-257 melanoma = system: UACC-257 melanoma
# DU-145 prostate = system: DU-145 prostate
# HL-60(TB) leukemia = system: HL-60(TB) leukemia
# SNB-75 CNS = system: SNB-75 CNS
# MDA-MB-435 = system: MDA-MB-435
# BT-549 breast = system: BT-549 breast
# PC-3 prostate = system: PC-3 prostate
structure (smiles),measurement,setting,value
CCOc1cc(F)c([N+](=O)[O-])cc1[N+](=O)[O-],GI50,SW-620 colon,1780 nM
same,TGI,SW-620 colon,3.3 µM
same,GI50,NCI/ADR-RES ovarian,2880 nM
same,TGI,NCI/ADR-RES ovarian,8 µM
same,GI50,SK-MEL-2 melanoma,1890 nM
same,TGI,SK-MEL-2 melanoma,4.4 µM
same,GI50,HCT-15 colon,2710 nM
same,TGI,HCT-15 colon,9.22 µM
same,GI50,OVCAR-3 ovarian,1830 nM
same,TGI,OVCAR-3 ovarian,3.23 µM
same,GI50,K-562 leukemia,3.01 µM
same,TGI,K-562 leukemia,57 µM
same,GI50,KM12 colon,1810 nM
same,TGI,KM12 colon,3.49 µM
same,GI50,CCRF-CEM leukemia,2680 nM
same,TGI,CCRF-CEM leukemia,6.4 µM
same,GI50,HCT-116 colon,1640 nM
same,TGI,HCT-116 colon,2990 nM
same,GI50,HS 578T breast,2480 nM
same,TGI,HS 578T breast,7.97 µM
same,GI50,COLO 205 colon,2030 nM
same,TGI,COLO 205 colon,3.88 µM
same,GI50,SK-OV-3 ovarian,14.5 µM
same,TGI,SK-OV-3 ovarian,27.6 µM
same,GI50,786-0 renal,3.77 µM
same,TGI,786-0 renal,13.9 µM
same,GI50,LOX IMVI melanoma,1660 nM
same,TGI,LOX IMVI melanoma,3.02 µM
same,GI50,HCC-2998 colon,1870 nM
same,TGI,HCC-2998 colon,3.31 µM
same,GI50,SK-MEL-28 melanoma,2500 nM
same,TGI,SK-MEL-28 melanoma,6.12 µM
same,GI50,SF-268 CNS,2560 nM
same,TGI,SF-268 CNS,6.46 µM
same,GI50,SF-539 CNS,1850 nM
same,TGI,SF-539 CNS,3.85 µM
same,GI50,ACHN renal,2020 nM
same,TGI,ACHN renal,4.81 µM
same,GI50,EKVX NSCLC,1850 nM
same,TGI,EKVX NSCLC,4.5 µM
same,GI50,MDA-MB-231 breast,1990 nM
same,TGI,MDA-MB-231 breast,4.39 µM
same,GI50,A498 renal,5.81 µM
same,TGI,A498 renal,18.2 µM
same,GI50,SN12C renal,2000 nM
same,TGI,SN12C renal,4.32 µM
same,GI50,HOP-62 NSCLC,9.35 µM
same,TGI,HOP-62 NSCLC,21.6 µM
same,GI50,SK-MEL-5 melanoma,2990 nM
same,TGI,SK-MEL-5 melanoma,8.4 µM
same,GI50,UACC-62 melanoma,1730 nM
same,TGI,UACC-62 melanoma,3.75 µM
same,GI50,NCI-H522 lung,1500 nM
same,TGI,NCI-H522 lung,3.24 µM
same,GI50,NCI-H226 lung,2810 nM
same,TGI,NCI-H226 lung,8.48 µM
same,GI50,U251 CNS,1690 nM
same,TGI,U251 CNS,3.24 µM
same,GI50,TK-10 renal,2910 nM
same,TGI,TK-10 renal,10.1 µM
same,GI50,M14 melanoma,1670 nM
same,TGI,M14 melanoma,3.03 µM
same,GI50,OVCAR-4 ovarian,1920 nM
same,TGI,OVCAR-4 ovarian,3.48 µM
same,GI50,T-47D breast,3.31 µM
same,TGI,T-47D breast,14.7 µM
same,GI50,OVCAR-5 ovarian,1800 nM
same,TGI,OVCAR-5 ovarian,4.34 µM
same,GI50,OVCAR-8 ovarian,2570 nM
same,TGI,OVCAR-8 ovarian,6.64 µM
same,GI50,A549 NSCLC,3.68 µM
same,TGI,A549 NSCLC,14.9 µM
same,GI50,MCF7 breast,886 nM
same,TGI,MCF7 breast,17.3 µM
same,GI50,NCI-H23 lung,2420 nM
same,TGI,NCI-H23 lung,5.56 µM
same,GI50,RPMI-8226 leukemia,3.43 µM
same,TGI,RPMI-8226 leukemia,11.2 µM
same,GI50,RXF 393 renal,1890 nM
same,TGI,RXF 393 renal,3.37 µM
same,GI50,SNB-19 CNS,3.82 µM
same,TGI,SNB-19 CNS,13.3 µM
same,GI50,SF-295 CNS,3.19 µM
same,TGI,SF-295 CNS,12.8 µM
same,GI50,CAKI-1 renal,1190 nM
same,TGI,CAKI-1 renal,2420 nM
same,GI50,MOLT-4 leukemia,2850 nM
same,TGI,MOLT-4 leukemia,8.02 µM
same,GI50,NCI-H460 lung,2380 nM
same,TGI,NCI-H460 lung,5.35 µM
same,GI50,UACC-257 melanoma,1600 nM
same,TGI,UACC-257 melanoma,3.23 µM
same,GI50,DU-145 prostate,1990 nM
same,TGI,DU-145 prostate,4.04 µM
same,GI50,HL-60(TB) leukemia,1770 nM
same,TGI,HL-60(TB) leukemia,4.81 µM
same,GI50,SNB-75 CNS,3.58 µM
same,TGI,SNB-75 CNS,14.1 µM
same,GI50,MDA-MB-435,2590 nM
same,TGI,MDA-MB-435,7.31 µM
same,GI50,BT-549 breast,3.12 µM
same,TGI,BT-549 breast,11.2 µM
same,GI50,PC-3 prostate,4.63 µM
same,TGI,PC-3 prostate,18 µM
